The test system of one data set is human red blood cells. It is filed as cell-based. To be noted: concentrations up to 500 μM (~250 μg/mL); 1 hour at 37 °C.
The subject of the next data set is E. coli DH5αZ1. The data set is described as follows: Checkerboard FICI, E. coli DH5αZ1. The data set is classed as cell-based.
The next data set concerns P. aeruginosa PA 27853. The data set is described as follows: Checkerboard FICI, P. aeruginosa PA 27853. It is filed as cell-based.
A further data set deals with P. aeruginosa Pa-3. Nature of the data set: Checkerboard FICI, P. aeruginosa Pa-3. The data set is classed as cell-based.
In a further data set the test system is M. smegmatis mc^2155. The data set is described as follows: Checkerboard FICI, M. smegmatis mc^2155 expressing TetX-HA. To be noted: combination with Tetracycline. The data set is classed as cell-based.
The target of a further data set is T1, Tet50 (Unknown prokaryotic organism, UniProt A0A059WYP6).
T1 sequence (A0A059WYP6 1-388): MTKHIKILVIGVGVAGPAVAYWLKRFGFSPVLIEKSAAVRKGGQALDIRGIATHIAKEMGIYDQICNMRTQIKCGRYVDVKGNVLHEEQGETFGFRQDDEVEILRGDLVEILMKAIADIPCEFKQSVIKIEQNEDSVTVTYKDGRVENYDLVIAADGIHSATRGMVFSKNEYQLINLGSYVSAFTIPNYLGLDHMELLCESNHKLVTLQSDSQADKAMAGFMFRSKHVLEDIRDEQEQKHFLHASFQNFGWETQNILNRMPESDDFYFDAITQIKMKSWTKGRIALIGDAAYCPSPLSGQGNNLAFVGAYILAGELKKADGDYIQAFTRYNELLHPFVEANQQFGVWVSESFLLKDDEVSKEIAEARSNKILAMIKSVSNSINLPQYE
To be noted: Tet(50); cited from earlier work.

The format of data set [1] is in vitro ADME. To be noted: E. coli cell lysate, 37 °C; LC-MS (A405 for acetate control).
The test system of data set [2] is E. coli DH5αZ1 expressing TetX7 or Tet50 from pZE24 plasmid. Nature of the data set: MIC by microbroth dilution, inhibitor alone or with fixed 8 μg/mL TC. It is filed as cell-based. To be noted: fixed TC concentration of 8 μg/mL; inhibitor concentration needed to rescue TC activity. On the technique in general: In broth dilution the organism is exposed to a series of concentrations in liquid medium.

The test system of another data set is E. coli DH5αZ1+pZE24. The data set is described as follows: Checkerboard FICI, E. coli DH5αZ1+pZE24. The data set is classed as cell-based. To be noted: combination with Tetracycline; E. coli DH5αZ1+pZE24 (empty vector).
The test system of data set [3] is E. coli DH5αZ1+pZE24-TetX7. Nature of the data set: Checkerboard FICI, E. coli DH5αZ1+pZE24-TetX7. The data set is classed as cell-based. To be noted: combination with Tetracycline.
The test system of data set [4] is E. coli DH5αZ1+pZE24-Tet50. Nature of the data set: Checkerboard FICI, E. coli DH5αZ1+pZE24-Tet50. The data set is classed as cell-based. To be noted: combination with Tetracycline.
The subject of data set [5] is E. coli DH5αZ1 expressing TetX7 or Tet50 from pZE24 plasmid. To be noted: E. coli expressing TetX7 and Tet50; cited from earlier work.
The target of the next data set is TetX7 (Pseudomonas aeruginosa, UniProt Q7X2A0). The data set is described as follows: Apparent steady-state kinetics of NADPH consumption. The data set is classed as biochemical. To be noted: increasing inhibitor concentration, A340.
Sequence of TetX7 (Q7X2A0 1-378): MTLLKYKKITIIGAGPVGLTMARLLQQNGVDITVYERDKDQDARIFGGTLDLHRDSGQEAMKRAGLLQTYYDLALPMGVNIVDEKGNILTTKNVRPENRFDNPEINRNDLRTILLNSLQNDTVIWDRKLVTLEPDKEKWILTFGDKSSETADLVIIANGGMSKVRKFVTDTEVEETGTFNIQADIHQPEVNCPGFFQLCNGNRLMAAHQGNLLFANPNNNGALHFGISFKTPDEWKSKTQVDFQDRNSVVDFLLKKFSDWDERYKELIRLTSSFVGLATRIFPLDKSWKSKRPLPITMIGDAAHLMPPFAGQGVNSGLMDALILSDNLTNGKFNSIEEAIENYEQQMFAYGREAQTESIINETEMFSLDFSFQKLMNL
Setting [6] is: combination with Tetracycline, P. aeruginosa PA 27853.
Where [7] appears, read: combination with Tigecycline, P. aeruginosa PA 27853.
[8] abbreviates: combination with Tetracycline, P. aeruginosa PA 27853 (control lacking TetX7).

For `Cc1c2c(c(O)c3c(O)cccc13)C(=O)[C@]1(O)C(=O)C(C(N)=O)=C(O)[C@@H](N(C)C)[C@@H]1C2` [aTC, anhydrotetracycline, reference compound], the Hemolysis entry with human red blood cells was “No hemolysis”. Moreover, the Effect result in the data set with E. coli DH5αZ1 (combination with Tetracycline) is “Indifferent”; with E. coli DH5αZ1 (combination with Tigecycline) it was “Indifferent”; in the data set with P. aeruginosa PA 27853 (setting [6]), “Additive”; in the data set on P. aeruginosa PA 27853 (setting [7]), “Additive”; in the data set with P. aeruginosa Pa-3 (combination with Tetracycline) it was “Synergetic”; with P. aeruginosa Pa-3 (combination with Tigecycline), “Synergetic”. The Effect result with M. smegmatis mc^2155 is “Indifferent”. Moreover, the FICI with E. coli DH5αZ1 (combination with Tetracycline) was above 1; in the data set with E. coli DH5αZ1 (combination with Tigecycline) it was above 1; in the data set on M. smegmatis mc^2155, 1. Besides, the “Kapp of NADPH consumption” value on Tet50 was 2.0 ± 0.3 µM.

With `CC(=O)Oc1ccc([N+](=O)[O-])cc1` [p-NO2-phenyl acetate], in data set [1], the “Stability toward hydrolysis in cell lysate” value was “time- and lysate-dependent increase in A405”.

Turning to `Cc1c2c(c(O)c3c(OC(=O)c4ccccn4)cccc13)C(=O)[C@]1(O)C(=O)C(C(N)=O)=C(O)[C@@H](N(C)C)[C@@H]1C2` [Inhibitor 7], the “MIC of inhibitor combined with TC” value in data set [2] stood at 2 µg/mL. Besides, the Effect entry was “Indifferent” with E. coli DH5αZ1+pZE24; “Additive” in data set [3]; “Additive” in data set [4]; “Additive” in the data set with E. coli DH5αZ1 (combination with Tetracycline); “Indifferent” with E. coli DH5αZ1 (combination with Tigecycline); “Indifferent” with P. aeruginosa PA 27853 (setting [6]). In addition, the Effect result was “Indifferent” in the data set with P. aeruginosa PA 27853 (setting [7]), “Indifferent” in the data set with P. aeruginosa Pa-3 (combination with Tetracycline), “Synergetic” in the data set with P. aeruginosa Pa-3 (combination with Tigecycline) and “Additive/Indifferent” in the data set with M. smegmatis mc^2155. Besides, the FICI with E. coli DH5αZ1+pZE24 is reported as 1.125; in [3] it was 0.625; in data set [4], 0.625; with E. coli DH5αZ1 (combination with Tigecycline), above 1; in the data set on P. aeruginosa PA 27853 (setting [8]), above 1; in the data set with P. aeruginosa PA 27853 (setting [7]), above 1. For the same compound, the FICI in the data set on M. smegmatis mc^2155 is on record as 0.75–1.

For the compound `CN(C)[C@@H]1C(O)=C(C(N)=O)C(=O)[C@@]2(O)C(O)=C3C(=O)c4c(O)cccc4[C@@](C)(O)[C@H]3C[C@@H]12` [TC, tetracycline], the “MIC of TC” value in data set [5] was above 8 µg/mL.

For `Cc1c2c(c(O)c3c(OC(=O)c4cccnc4)cccc13)C(=O)[C@]1(O)C(=O)C(C(N)=O)=C(O)[C@@H](N(C)C)[C@@H]1C2` [Inhibitor 8], the “Vmax of NADPH consumption” value at TetX7 turned out to be 0.05 ± 0.02 min⁻¹. Besides, the “MIC of inhibitor combined with TC” value in [2] came to 4 µg/mL. Moreover, the Effect entry is on record as “Indifferent” in the data set on E. coli DH5αZ1+pZE24; “Synergetic” in data set [3]; “Synergetic” in data set [4]; “Indifferent” with E. coli DH5αZ1 (combination with Tetracycline); “Indifferent” with E. coli DH5αZ1 (combination with Tigecycline); “Indifferent” with P. aeruginosa PA 27853 (setting [6]). Further, the Effect result was “Indifferent” in the data set on P. aeruginosa PA 27853 (setting [7]), “Indifferent” with P. aeruginosa Pa-3 (combination with Tetracycline), “Additive” with P. aeruginosa Pa-3 (combination with Tigecycline) and “Additive/Indifferent” in the data set with M. smegmatis mc^2155. Further, the FICI was 1 in the data set on E. coli DH5αZ1+pZE24; 0.375 in [3]; 0.265 in data set [4]; above 1 with E. coli DH5αZ1 (combination with Tetracycline); above 1 in the data set with E. coli DH5αZ1 (combination with Tigecycline); above 1 in the data set on P. aeruginosa PA 27853 (setting [8]). For the same compound, the FICI was above 1 in the data set on P. aeruginosa PA 27853 (setting [7]) and 0.75–1 in the data set with M. smegmatis mc^2155.
